Tested on: KK-Ay/Ta Jc1 mice
Assay: Body weight increase per ingested feed amount in obesity type 2 diabetic model mice
Type: in vivo
Conditions: KK-Ay/Ta Jc1 male mice, 1% by weight in CE-2 feed; for Body Weight Increase/ Ingested Feed Amount (%): free intake, initial day to 17th day, mean value ± standard error (n=5); for body weight increase per ingested feed amount as compared with group 1 (CE-2 feed only): 17 days, t-test
Source text: KK-Ay/Ta Jc1 mice (Clea Japan, Inc.; male; six weeks age)(15 mice) of an obesity type 2 diabetic model were divided into three groups each comprising five and named group 1 to group 3.
The mice of the groups 1 to 3 were made free to take feed and water. A commercially available feed CE-2 (manufactured by Clea Japan, Inc.) was ingested to the mice of group 1. CE-2 to which 1% by weight of trans-4-hydroxy-L-proline (manufactured by Kyowa Hakko Kogyo; hereinafter, abbreviated as the hydroxyproline) was added was ingested to the mice of group 2. CE-2 to which 1% by weight of trans-N-acetyl-4-hydroxy-L-proline (manufactured by Kyowa Hakko Kogyo; hereinafter, abbreviated as the N-acetylhydroxyproline) was added was ingested to the mice of group 3.
Body weight on the initial day of the test and on the 17th day and amount of the ingested feed from the initial day of the test to the 17th day were measured. As an index for the progress of obesity, a body weight increase during the test period for the total ingested feed amount during the test period was calculated for each mouse. The value was shown in terms of mean value±standard error (n=5) and statistic ratio of risk (p value) was determined by a t-test.

CC(=O)N1C[C@H](O)C[C@H]1C(=O)O [N-acetylhydroxyproline, trans-N-acetyl-4-hydroxy-L-proline]
Body Weight Increase/ Ingested Feed Amount (%): 4.2 ± 0.6 % | body weight increase per ingested feed amount as compared with group 1 (CE-2 feed only): significantly low

O=C(O)[C@@H]1C[C@@H](O)CN1 [hydroxyproline, trans-4-hydroxy-L-proline]
Body Weight Increase/ Ingested Feed Amount (%): 5.8 ± 0.4% | body weight increase per ingested feed amount as compared with group 1 (CE-2 feed only): tended to show low value

Reference: patent publication US20060264498A1, “Anti-obesity agent” (Kyowa Hakko Kogyo Co., Ltd., priority 2003, published 2006)
